According to patent US7807712B2, “Oxy substituted chalcones as antihyperglycemic and antidyslipidemic agents” (priority 2004, dated 2010):
Where two headings read alike, the source gives them in different places.

How the values were obtained:
[1] = test system: triton WR-1339 induced hyperlipidemic rats; experiment: Triton model, antidyslipidemic activity; format: in vivo, rat (Charles foster); conditions: Rattus norvegicus, 100 mg/kg oral
Method: Male Charles foster rats weighing 200-225 g were divided into control, hyperlipidemic and hyperlipidemic plus drug treated groups containing six animals in each group. Hyperlipidemia was induced by administration of triton WR-1339 (200 mg/kg i.p.). All animals were maintained on a special pellet diet and water ad libitum. Compounds and standard drug were macerated with 0.2% aqueous gum acacia suspension. The suspension was fed orally at the dose of 100 mg/kg simultaneously with triton in drug treated group. The animals of control group received the same amount of gum acacia by similar route of administration. At the end of the experiment, after 18 h, blood was withdrawn from retro orbital plexus and plasma was used for the assay of total cholesterol, phospholipid and triglycerides.
Cholesterol was estimated using the kit provided by Roche Diagnostics. Cholesterol esters are enzymatically hydrolyzed by cholesterol esterase (CE) to cholesterol and free fatty acids. Free cholesterol, including that originally present, is then oxidized by cholesterol oxidase (CO) to cholest-4-en-3-one and hydrogen peroxide. The hydrogen peroxide combines with hydroxy benzoic acid (HBA) and 4-aminoantipyrine (4AAA) in the presence of peroxidase (POD) to form a chromophore (quinoneimine dye), which may be quantitated at 500-505 nm. The intensity of red colour formed is directly proportional to the concentration of total cholesterol in the specimen and measured spectrophotometrically (Searcy, C. L. Diagnostic Biochemistry, 1969, McGraw Hill, New York; Ellefson, R. D.; Caraway, W. T. Fundamentals of clinical chemistry, 1976, Ed Tietz N W, 506-515.)
Triglycerides were estimated using the kit provided by Roche Diagnostics. Lipoprotein lipase hydrolyses triglycerides to yield glycerol and fatty acids. Glycerol kinase converts glycerol to glycerol-3-phosphate, which is oxidized by glycerol phosphate oxidase to dihydroxy acetone phosphate and hydrogen peroxide. In the presence of peroxidase, hydrogen peroxide oxidatively couples with 4-aminoantipyrine and 4-chloro phenol to produce red quinonimine dye. The intensity of red colour formed is directly proportional to the concentration of triglycerides in the specimen and is measured by photometrically (Wahlefeld, A. W.; Bergmeyer, H. U. Ed. Methods of enzymatic analysis, 2nd English edition, New York, N.Y., Academic press inc, 1831-1840.).
Serum (0.2 mL) and perchloric acid (1.0 mL) was digested at 180° C. for 1-1.5 h till the solution became colorless. The liberated inorganic phosphate (Pi) was measured by the method of Fiske and Subbarow (Fiske, C. H.; Subbarow, V. J. Biol. Chem. 1925, 66, 375.). 1 mL of 2.5% ammonium molybdate (prepared in 5 N sulphuric acid) and 0.5 mL reducing agent (4-amino naphthol sulphonic acid, 0.2%), sodium metabisulphite (2.4% w/v in distilled water) was added to the above tubes and mixed well. The reaction mixture was […] with 2.5 mL of triple distilled water and kept at 60° C. in water bath for 20 min. For standard, an appropriate amount of potassium dihydrogen phosphate dissolved in triple distilled water containing 2-10 μg phosphorus (Pi) was run simultaneously with the experiment tubes. The optical density of the blue colour was recorded at 620 nm against reagent blank. The values of Pi were converted into phospholipid by multiplying with 25 (a constant calibrated from Pi value of lecithin).

db/db mice = experiment: Antihyperglycemic activity in db/db mice; format: in vivo, mouse (C57BL/KsBom-db); conditions: for % Fall in blood glucose levels 6 days / % Fall in blood glucose levels 10 days: db/db mice; for % Fall in blood glucose levels 6 days: day 6 postprandial protocol; for % Fall in blood glucose levels 10 days: day 10 OGTT, glucose 3 gm/kg
From the text: The db/db mouse is a well-characterized model of […]. The background for the db/db mouse is the C57BL/Ks strain. The major deficiency of the C57BL/KsBom-db mouse (db/db) is lack of a functional leptin receptor. This leads to defective leptin signaling and a complete lack of feedback from leptin. […] The db/db mouse develops NIDDM from around week 10. The disease is stable until week 20, where destruction of pancreatic β-cells can be recognized clinically as decreasing levels of plasma insulin and very severe hyperglycemia. The male mice are more diabetic than female and will normally die earlier. The advantage of using male mice for experimental purposes is that the fluctuations in plasma parameters are less than in the females where the estrogen cycle affects the clinical diabetes mellitus. The optimal age of db/db mice used for experiments will be from week 12 to 18 when they have developed NIDDM with diabetic dyslipidemia but still have functional β-cells in the pancreas. C57BL/KsBom-db mice 12-18 weeks, 40-50 g bred in the animal house of CDRI, Lucknow. 10 male mice were used in the experiments. The mice were housed in groups of 5 individuals in a room controlled for temperature (23±2° C.) and 12/12 hours light/dark cycle (lights on at 6.00 am). Body weight was measured daily from day 1 to day 10. All animals had free access to fresh water and to normal chow except on the days of the postprandial protocol day 6 and during the overnight fast before the OGTT on day 10. Blood glucose was checked every morning up till day 5. On day 6 postprandial protocol was employed, in this method blood glucose was checked at −0.30 min and 0 h. Test compounds were given to the treatment group whereas control group received only gum acacia (1.0%); the blood glucose was again checked at 1, 2, 3, 4 and 6 h post test compound treatment. Finally on day 10 an oral glucose tolerance test (OGTT) was performed after an overnight fasting. Blood glucose was measured at −0.30 min and test drugs were fed, blood glucose was again measured at 0.0 min post treatment, at this juncture glucose solution was given at a dose of 3 gm/kg to all the groups including control group; the profile of blood glucose was checked at 30 min, 60 min, 90 min and 120 min post glucose administration. Quantitative glucose tolerance of each animal was calculated by Area Under Curve (AUC) method (Prism Software). Comparing the AUC of experimental and control groups determined the percentage antihyperglycemic activity. Statistical comparison was made by Dunnett's test.

[2] = plasma phospholipid after 18 h, read-out: % Fall in lipid levels (Triton model) PL
[3] = plasma total cholesterol after 18 h, read-out: % Fall in lipid levels (Triton model) TC
[4] = plasma triglycerides after 18 h, read-out: % Fall in lipid levels (Triton model) TG

| SMILES | inhibition in vivo at 100 mg/kg [1, 2] | inhibition in vivo at 100 mg/kg [1, 3] | inhibition in vivo at 100 mg/kg [1, 4] | % Fall in blood glucose levels 6 days (db/db mice) | % Fall in blood glucose levels 10 days (db/db mice) | lowering of blood glucose in db/db mice (db/db mice; summary statement) |
| --- | --- | --- | --- | --- | --- | --- |
| COc1ccc(/C=C/C(=O)c2ccc(OCC(O)CN3CCN(c4ccccc4)CC3)cc2)cc1OC (stereo not shown) [Compound 18, 3,4-Dimethoxy-4′-[2-hydroxy-3-(4-phenylpiperazin-1-yl)-propoxy]-chalcone] | 8% | 20% | 12% | 29.9% | 18.9% | – |
| O=C1NC(=O)/C(=C\c2ccc(OCCCCCOc3cccc(C(=O)/C=C/c4ccc5c(c4)OCO5)c3)cc2)S1 [Compound 46, 3,4-Methylenedioxy-3′-{5-[4-(thiazolidin-2,4-dione-5-ylidinemethyl)-phenoxy]-pentyloxy}-chalcone] | 20% | 13% | 20% | 1.76% | 23.1% | significant lowering of blood glucose |
| CC(C)(C)NCC(O)COc1ccc(C(=O)/C=C/c2ccc3c(c2)OCO3)cc1 (stereo not shown) [Compound 34, 4′-[^3-tert-Butylamino-2-hydroxy-propoxy]-3,4-methylenedioxy-chalcone] | 20% | 26% | 18% | NIL | 32.0% | – |
